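Cells were grown in 96-well plates and exposed to each compound for 48 hours at five concentrations; endpoints were interpolated linearly between bracketing concentrations, or set to the highest concentration if not reached. Definition used: TGI = concentration required for complete inhibition of growth.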 A value given as a limit tells only on which side of the number the result lay.

Some test systems named below: BT-549 breast; SNB-75 CNS; K-562 leukemia; HCT-15 colon; OVCAR-5 ovarian; M14 melanoma; OVCAR-8 ovarian; SF-268 CNS; T-47D breast; NCI-H522 lung; ACHN renal; HT29 colon; MDA-MB-231 breast; SF-539 CNS; SR leukemia; UACC-62 melanoma; SK-OV-3 ovarian.
Experiment in all cases: NCI tumour cell line growth inhibition, 48 h

`Cc1nc(N)c(N2CCN(C(=O)O)CC2)c(=O)[nH]1`: the TGI in the assay on BT-549 breast, with SNB-75 CNS, with K-562 leukemia, with HCT-15 colon, in the assay on OVCAR-5 ovarian and in the assay on M14 melanoma was above 100 µM throughout. The TGI with OVCAR-8 ovarian, with SF-268 CNS, in the assay on T-47D breast, with NCI-H522 lung, in the assay with ACHN renal and in the assay with HT29 colon was above 100 µM in each case. For the same molecule, the TGI with MDA-MB-231 breast, in the assay on SF-539 CNS and with SR leukemia was above 100 µM throughout.

Turning to `CC#CC(O)(C(=O)OCCCN(C)C)C1CCCCC1` (stereo not given), the TGI in the assay with BT-549 breast, in the assay with SNB-75 CNS, in the assay with K-562 leukemia, in the assay with HCT-15 colon, with OVCAR-5 ovarian and in the assay with M14 melanoma was above 100 µM in each case. The TGI in the assay on UACC-62 melanoma, in the assay on OVCAR-8 ovarian, in the assay on SF-268 CNS, with T-47D breast, in the assay on SK-OV-3 ovarian and in the assay on ACHN renal was above 100 µM in each case. Also, the TGI with HT29 colon, with MDA-MB-231 breast, in the assay on SF-539 CNS and in the assay on SR leukemia was above 100 µM throughout.

`COC(=O)C(N)CCCC(N)C(=O)NC(C)C(=O)NC(CCC(=O)NCCNCCNc1c2ccccc2nc2cccc([N+](=O)[O-])c12)C(N)=O` (stereo not given): the TGI in the assay with BT-549 breast was 38.5 µM; with SNB-75 CNS, 26.1 µM; in the assay with K-562 leukemia, 20.7 µM; with HCT-15 colon, 48.6 µM; in the assay with OVCAR-5 ovarian it was above 100 µM; in the assay with M14 melanoma, 26.2 µM. In addition, the TGI in the assay with UACC-62 melanoma is 27.1 µM; with OVCAR-8 ovarian, 42.3 µM; in the assay on SF-268 CNS it was 10.7 µM; with T-47D breast, 45.8 µM; in the assay with SK-OV-3 ovarian it was above 100 µM; with ACHN renal it was above 61.1 µM. Further, the TGI with HT29 colon is 47.7 µM; in the assay on MDA-MB-231 breast, 53.1 µM; with SF-539 CNS, 14.2 µM; in the assay with SR leukemia, above 100 µM.

With `COC(=O)/C(C#N)=C(\Nc1ccccc1)N1CCOCC1`, the TGI in the assay with BT-549 breast, in the assay with SNB-75 CNS, in the assay on K-562 leukemia, in the assay with HCT-15 colon, with OVCAR-5 ovarian and in the assay on M14 melanoma was above 100 µM throughout. Besides, the TGI with OVCAR-8 ovarian, in the assay with SF-268 CNS, in the assay on T-47D breast, in the assay on SK-OV-3 ovarian, in the assay with NCI-H522 lung and in the assay on ACHN renal was above 100 µM each time. Besides, the TGI with HT29 colon, in the assay on MDA-MB-231 breast, with SF-539 CNS and in the assay on SR leukemia was above 100 µM throughout.

With `O=C(O)CN1C=C(C(=O)c2cc3ccccc3n2S(=O)(=O)c2ccccc2)CCC1`, the TGI in the assay with BT-549 breast, in the assay with SNB-75 CNS, with K-562 leukemia, with HCT-15 colon, in the assay with OVCAR-5 ovarian and in the assay on M14 melanoma was above 100 µM each time. For the same molecule, the TGI in the assay with UACC-62 melanoma, with OVCAR-8 ovarian, in the assay with SF-268 CNS, with T-47D breast, in the assay on ACHN renal and in the assay with HT29 colon was above 100 µM throughout. For the same molecule, the TGI with MDA-MB-231 breast, with SF-539 CNS and in the assay with SR leukemia was above 100 µM in each case.

Consider `CC(=O)C(=[N+]=[N-])C(=O)N1CCOC1=O`, for which the TGI with BT-549 breast, with SNB-75 CNS, in the assay on K-562 leukemia, in the assay on HCT-15 colon, in the assay on OVCAR-5 ovarian and with M14 melanoma was above 10 µM in each case. Moreover, the TGI with UACC-62 melanoma, in the assay on OVCAR-8 ovarian, in the assay on SF-268 CNS, with T-47D breast, in the assay on SK-OV-3 ovarian and in the assay on ACHN renal was above 10 µM in each case. Moreover, the TGI with HT29 colon, with MDA-MB-231 breast, with SF-539 CNS and in the assay on SR leukemia was above 10 µM each time.

For `O=c1[nH]c(=O)n(COCc2ccccc2)c2ccsc12`, the TGI in the assay with BT-549 breast, in the assay with SNB-75 CNS, in the assay with K-562 leukemia, in the assay with HCT-15 colon, in the assay on OVCAR-5 ovarian and in the assay with M14 melanoma was above 100 µM each time. The TGI in the assay on OVCAR-8 ovarian, in the assay with SF-268 CNS, in the assay with T-47D breast, in the assay on NCI-H522 lung, in the assay on ACHN renal and with HT29 colon was above 100 µM throughout. For the same molecule, the TGI in the assay on MDA-MB-231 breast, in the assay on SF-539 CNS and in the assay on SR leukemia was above 100 µM in each case.

For the molecule `C#C[C@]1(O)CC[C@H]2[C@@H]3CCC4=C/C(=N/OCCN(C)C)CC[C@]4(C)[C@H]3CC[C@@]21C`, the TGI with BT-549 breast was above 100 µM; in the assay with SNB-75 CNS, above 100 µM; in the assay on K-562 leukemia it was above 100 µM; in the assay on HCT-15 colon it was above 100 µM; with OVCAR-5 ovarian, above 100 µM; with M14 melanoma, 35.2 µM. Moreover, the TGI in the assay on UACC-62 melanoma is above 100 µM; in the assay on OVCAR-8 ovarian, above 100 µM; in the assay on SF-268 CNS, above 100 µM; in the assay with T-47D breast, above 100 µM; with SK-OV-3 ovarian, above 100 µM; with NCI-H522 lung, 62.6 µM. In addition, the TGI in the assay with ACHN renal was above 100 µM; with HT29 colon, above 100 µM; in the assay on MDA-MB-231 breast it was above 100 µM; in the assay on SR leukemia, 67.5 µM.

Consider `O=C(O)CCCC(=O)Nn1c(Cc2ccc(Cl)cc2)n[nH]c1=O`, for which the TGI in the assay on BT-549 breast, in the assay with K-562 leukemia, with HCT-15 colon, in the assay with OVCAR-5 ovarian, with M14 melanoma and in the assay on UACC-62 melanoma was above 100 µM each time. The TGI in the assay with OVCAR-8 ovarian, in the assay on SF-268 CNS, in the assay on T-47D breast, in the assay on SK-OV-3 ovarian, in the assay with NCI-H522 lung and in the assay with ACHN renal was above 100 µM each time. Moreover, the TGI in the assay on HT29 colon, with MDA-MB-231 breast and in the assay on SR leukemia was above 100 µM throughout.

Values taken from PubChem BioAssay (NCI).
